Results from patent US20130158035A1, “[…] COMPOUNDS” (Brigham Young University, priority 2010, published 2013).

The compounds below were run on MDCK cells (assay: HGF-induced epithelial-mesenchymal transition / migration of MDCK cells on transwell filters (crystal violet densitometry)). Conditions: Table 1; 10 μM compound, then HGF, 24 hours; percentage like untreated controls (unstimulated cells = maximal effect, HGF only = nil).
Format: cell-based
Experimental: MDCK cells were seeded at confluency into the wells of a transwell filter in DMEM with 10% fetal bovine serum. Cells were cultured for 24 hours. Test compounds, dissolved in DMSO, were added to each test well to a 10 μM final concentration, and then hepatocyte growth factor (HGF) was then added. The MDCK cells were cultured for 24 hours. Concurrently, controls treated with and without HGF and with no test compounds were also prepared.
After post-HGF addition culturing, transwell filters were prepared by repeated washing using ice cold PBS. The cells were then fixed with paraformaldehyde (3.7%) on ice for 15 minutes to the filters. After fixation, the transwell filters were washed repeatedly with PBS followed by staining with crystal violet for 15 minutes. The transwell filters were washed again with distilled water.
The upper surface of the transwell filters were swabbed using a cotton-tipped probe. The filters were photographed using a gel documentation system. Densitometry measurements were made on the test samples and compared with control samples.

SMILES	Assay Value [%]
O=C1CC(c2cc(F)ccc2F)c2cc3c(cc2N1)CCC3 (centres unmarked) [Compound 2]	90.3
COc1cc(C2CC(=O)Nc3cc4c(cc32)OCCO4)cc(OC)c1OC (centres unmarked) [Compound 3]	92.4
O=C1CC(c2cc(Br)ccc2F)c2cc3c(cc2N1)CCC3 (centres unmarked) [Compound 4]	36.1
COc1cc(Br)c(C2CC(=O)Nc3cc4c(cc32)OCCO4)cc1OC (centres unmarked) [Compound 5]	29.3
COc1cc(C2CC(=O)Nc3cc4c(cc32)OCCO4)cc(Br)c1OC (centres unmarked) [Compound 6]	52.2
O=C1CC(c2cccc3ccccc23)c2cc3c(cc2N1)OCCO3 (centres unmarked) [Compound 7]	17.1
CCOc1c(Br)cc(C2CC(=O)Nc3cc4c(cc32)OCCO4)cc1OC (centres unmarked) [Compound 8]	48.8
CCOc1ccc(Br)cc1C1CC(=O)Nc2cc3c(cc21)OCCO3 (centres unmarked) [Compound 9]	64.9
COc1ccc(Cl)cc1C1CC(=O)Nc2cc3c(cc21)OCCO3 (centres unmarked) [Compound 10]	62.9
O=C1CC(c2cc(Br)ccc2F)c2cc3c(cc2N1)OCCO3 (centres unmarked) [Compound 11]	27.9
O=C1CC(c2ccccc2F)c2cc3c(cc2N1)OCCO3 (centres unmarked) [Compound 12]	23.4
COc1cc2c(cc1OC)C(c1cccc(Cl)c1Cl)CC(=O)N2 (centres unmarked) [Compound 13]	>5
Cc1ccc(C)c(C2CC(=O)Nc3cc4c(cc32)OCCO4)c1 (centres unmarked) [Compound 14]	8.8
COc1ccc(C2CC(=O)Nc3cc4c(cc32)OCCO4)cc1OC (centres unmarked) [Compound 15]	12.9
COc1ccc(OC)c(C2CC(=O)Nc3cc4c(cc32)OCCO4)c1 (centres unmarked) [Compound 16]	15.1
COc1cccc(C2CC(=O)Nc3cc4c(cc32)OCCO4)c1 (centres unmarked) [Compound 17]	10.7
CCOc1cc(C2CC(=O)Nc3cc4c(cc32)OCCO4)ccc1O (centres unmarked) [Compound 18]	15.9
O=C1CC(c2cccc(O)c2)c2cc3c(cc2N1)OCCO3 (centres unmarked) [Compound 19]	7.8
O=C1CC(c2cc3c(cc2Cl)OCO3)c2cc3c(cc2N1)OCCO3 (centres unmarked) [Compound 20]	5.9
O=C1CC(c2ccc(F)c(Br)c2)c2cc3c(cc2N1)OCCO3 (centres unmarked) [Compound 21]	11.2
COc1cc2c(c(OC)c1)C(c1cc(OC)ccc1OC)CC(=O)N2 (centres unmarked) [Compound 22]	8.8
COc1cccc(C2CC(=O)Nc3cc4c(cc32)OCCO4)c1OC (centres unmarked) [Compound 23]	69.3
COc1ccc(C2CC(=O)Nc3cc4c(cc32)OCCO4)cc1 (centres unmarked) [Compound 24]	100
COc1cccc(C2CC(=O)Nc3cc4c(cc32)CCC4)c1OC (centres unmarked) [Compound 26]	90.4
O=C1CC(c2cc3c(cc2Br)OCO3)c2cc3c(cc2N1)CCC3 (centres unmarked) [Compound 27]	87.2
O=C1CC(c2ccccc2C(F)(F)F)c2cc3c(cc2N1)CCC3 (centres unmarked) [Compound 28]	95.2
COc1cccc(C2CC(=O)Nc3cc4c(cc32)CCC4)c1 (centres unmarked) [Compound 29]	69.3
COc1ccc(OC)c(C2CC(=O)Nc3cc(OC)c(OC)c(OC)c32)c1 (centres unmarked) [Compound 30]	52.3
COc1cc(C2CC(=O)Nc3cc4c(cc32)OCCO4)cc(OC)c1O (centres unmarked) [Compound 32]	88.2

Same assay, conditions: Table 2; 10 μM compound, then HGF, 24 hours; percentage like untreated controls (unstimulated cells = maximal effect, HGF only = nil)

SMILES	Assay Value [%]
CCOc1ccccc1C1CC(=O)Nc2cc(C)c(C)cc21 (centres unmarked) [Compound 33]	<5
COc1ccccc1C1CC(=O)Nc2cc(C)c(C)cc21 (centres unmarked) [Compound 34]	<5
O=C1CC(c2ccccc2Br)c2cc3c(cc2N1)OCCO3 (centres unmarked) [Compound 36]	<5
O=C1CC(c2ccccc2Cl)c2cc3c(cc2N1)OCCO3 (centres unmarked) [Compound 37]	<5
COc1ccccc1C1CC(=O)Nc2cc3c(cc21)OCCO3 (centres unmarked) [Compound 38]	<5
CCOc1c(Br)cc(C2CC(=O)Nc3cc(OC)c(OC)cc32)cc1OC (centres unmarked) [Compound 39]	<5
COc1cc2c(cc1OC)C(c1ccccc1C)CC(=O)N2 (centres unmarked) [Compound 40]	<5
COc1cc2c(cc1OC)C(c1cccc(Cl)c1)CC(=O)N2 (centres unmarked) [Compound 41]	<5
COc1cc2c(cc1OC)C(c1ccccc1OCc1ccccc1)CC(=O)N2 (centres unmarked) [Compound 42]	<5
CCCOc1ccc(C2CC(=O)Nc3cc(OC)c(OC)cc32)cc1 (centres unmarked) [Compound 43]	<5
O=C1CC(c2cccc(F)c2)c2cc3c(cc2N1)OCCO3 (centres unmarked) [Compound 44]	<5
Cc1ccccc1C1CC(=O)Nc2cc3c(cc21)OCCO3 (centres unmarked) [Compound 45]	<5
COc1cccc(C2CC(=O)Nc3cc4c(cc32)OCCO4)c1OC (centres unmarked) [Compound 46]	<5
CCCCOc1ccccc1C1CC(=O)Nc2cc(OC)c(OC)cc21 (centres unmarked) [Compound 47]	<5
COc1cc(Br)c(C2CC(=O)Nc3cc(OC)c(OC)cc32)cc1OC (centres unmarked) [Compound 48]	<5
COc1cc2c(cc1OC)C(c1ccc(Cl)cc1Cl)CC(=O)N2 (centres unmarked) [Compound 49]	<5
CC(C)Oc1ccccc1C1CC(=O)Nc2cc3c(cc21)OCCO3 (centres unmarked) [Compound 50]	<5
O=C1CC(c2ccc(Cl)c(Cl)c2)c2cc3c(cc2N1)OCCO3 (centres unmarked) [Compound 51]	<5
COc1cc2c(cc1OC)C(c1cc(Br)c(OC)c(OC)c1)CC(=O)N2 (centres unmarked) [Compound 52]	<5

SMILES	Assay Value [%]
O=C1CC(c2ccc([N+](=O)[O-])cc2)c2cc3c(cc2N1)OCCO3 (centres unmarked) [Compound 53]	<5
Cc1ccc(C2CC(=O)Nc3cc4c(cc32)OCCO4)cc1 (centres unmarked) [Compound 54]	<5
COc1cc2c(cc1OC)C(c1ccc(Cl)cc1)CC(=O)N2 (centres unmarked) [Compound 55]	<5
O=C1CC(c2ccccc2OCc2ccccc2)c2cc3c(cc2N1)OCCO3 (centres unmarked) [Compound 56]	<5
COc1cc2c(cc1OC)C(c1cc(C)ccc1C)CC(=O)N2 (centres unmarked) [Compound 57]	<5
O=C1CC(c2cccc(OCc3ccccc3)c2)c2cc3c(cc2N1)OCCO3 (centres unmarked) [Compound 58]	<5
COc1cc2c(cc1OC)C(c1cccc(Br)c1)CC(=O)N2 (centres unmarked) [Compound 59]	<5
COc1cc2c(cc1OC)C(c1cccc(OCc3ccccc3)c1)CC(=O)N2 (centres unmarked) [Compound 60]	<5
CCOc1ccccc1C1CC(=O)Nc2cc(OC)c(OC)cc21 (centres unmarked) [Compound 61]	<5
O=C1CC(c2ccc(F)cc2)c2cc3c(cc2N1)OCCO3 (centres unmarked) [Compound 62]	<5
CCOc1ccc(C2CC(=O)Nc3cc4c(cc32)OCCO4)cc1OC (centres unmarked) [Compound 63]	<5
COc1cc2c(cc1OC)C(c1cccc(C)c1)CC(=O)N2 (centres unmarked) [Compound 64]	<5
COc1cc2c(cc1OC)C(c1cc(OC)c(OC)cc1OC)CC(=O)N2 (centres unmarked) [Compound 65]	<5
COc1cc2c(cc1OC)C(c1cc(Br)ccc1OC)CC(=O)N2 (centres unmarked) [Compound 66]	<5
O=C1CC(c2ccccc2[N+](=O)[O-])c2cc3c(cc2N1)OCCO3 (centres unmarked) [Compound 67]	<5
CSc1ccc(C2CC(=O)Nc3cc4c(cc32)OCCO4)cc1 (centres unmarked) [Compound 68]	<5
O=C1CC(c2ccccc2F)c2cc3c(cc2N1)OCCO3 (centres unmarked) [Compound 69]	<5
COc1cc(C2CC(=O)Nc3cc4c(cc32)OCCO4)ccc1OCc1ccccc1 (centres unmarked) [Compound 70]	<5
CC(C)c1ccc(C2CC(=O)Nc3cc4c(cc32)OCO4)cc1 (centres unmarked) [Compound 71]	<5

SMILES	Assay Value [%]
COc1cc2c(cc1OC)C(c1cc(F)ccc1F)CC(=O)N2 (centres unmarked) [Compound 72]	<5
CC(C)Oc1ccc(C2CC(=O)Nc3cc4c(cc32)OCCO4)cc1 (centres unmarked) [Compound 73]	<5
CCOc1cc2c(cc1OCC)C(c1ccccc1F)CC(=O)N2 (centres unmarked) [Compound 74]	<5
O=C1CC(c2cccc(F)c2F)c2cc3c(cc2N1)OCO3 (centres unmarked) [Compound 75]	<5
O=C1CC(c2ccc(O)cc2)c2cc3c(cc2N1)OCO3 (centres unmarked) [Compound 76]	<5
O=C1CC(c2cc(F)cc(F)c2)c2cc3c(cc2N1)OCO3 (centres unmarked) [Compound 77]	<5
O=C1CC(c2ccc(OC(F)(F)F)cc2)c2cc3c(cc2N1)OCCO3 (centres unmarked) [Compound 78]	<5
CC(C)c1ccc(C2CC(=O)Nc3cc4c(cc32)OCCO4)cc1 (centres unmarked) [Compound 79]	<5
CN(C)c1ccc(C2CC(=O)Nc3cc4c(cc32)OCO4)cc1 (centres unmarked) [Compound 80]	<5
CCOc1ccc(C2CC(=O)Nc3cc4c(cc32)OCO4)cc1 (centres unmarked) [Compound 81]	<5
O=C1CC(c2ccc(F)cc2F)c2cc3c(cc2N1)OCO3 (centres unmarked) [Compound 82]	<5
Cc1ccc(C)c(C2CC(=O)Nc3cc4c(cc32)OCO4)c1 (centres unmarked) [Compound 83]	<5
COc1ccc(C2CC(=O)Nc3cc4c(cc32)OCO4)cc1Cl (centres unmarked) [Compound 84]	<5
Cc1cccc(C2CC(=O)Nc3cc4c(cc32)OCO4)c1 (centres unmarked) [Compound 85]	<5
O=C1CC(c2ccccc2)c2cc3c(cc2N1)OCO3 (centres unmarked) [Compound 86]	<5
O=C1CC(c2ccccc2C(F)(F)F)c2cc3c(cc2N1)OCO3 (centres unmarked) [Compound 87]	<5
O=C1CC(c2ccc3c(c2)OCO3)c2cc3c(cc2N1)OCO3 (centres unmarked) [Compound 88]	<5
Cc1ccc(C2CC(=O)Nc3cc4c(cc32)OCO4)cc1Br (centres unmarked) [Compound 89]	<5
COc1c(O)cccc1C1CC(=O)Nc2cc3c(cc21)OCO3 (centres unmarked) [Compound 90]	<5
